Experimental data published in ChEMBL document CHEMBL4024742, “Pharmaceutical Approaches to Target Antibiotic Resistance Mechanisms” (J Med Chem, 2017).
In brackets after ≈: the same amount, converted by molar mass.

Tests used:
Staphylococcus aureus [1] = test: Antibiofilm activity against methicillin-resistant Staphylococcus aureus BAA-44 at 100 uM after 24 hrs by crystal violet staining based assay; format: functional; conditions: BAA-44, 24 h
Escherichia coli [2] = test: Antibacterial activity against multi drug-resistant Escherichia coli KG1 after 24 hrs by serial dilution method; format: functional; conditions: KG1, 24 h
Escherichia coli [3] = test: Antibacterial activity against multi drug-resistant Escherichia coli EM7 mutant after 24 hrs by serial dilution method; format: functional
Escherichia coli [4] = test: Antibacterial activity against multi drug-resistant Escherichia coli KG4 after 24 hrs by serial dilution method; format: functional; conditions: KG4, 24 h
Escherichia coli [5] = test: Antibacterial activity against multi drug-resistant Escherichia coli EM5 mutant after 24 hrs by serial dilution method; format: functional
Escherichia coli [6] = test: Antibacterial activity against multi drug-sensitive Escherichia coli MTCC 739 after 24 hrs by serial dilution method; format: functional; conditions: MTCC 739, 24 h
Staphylococcus aureus [7] = test: Antibiofilm activity against methicillin-resistant Staphylococcus aureus BAA-44 after 24 hrs by crystal violet staining based assay; format: functional; conditions: BAA-44, 24 h
[8] = Inhibition of Klebsiella pneumoniae NP6 KPC-2 expressed in Escherichia coli DH5alpha
[9] = Inhibition of bacterial IMP-1 using nitrocefin as substrate; set-up: species or system Bacteria
Enterobacter = test: Antibacterial activity against ESBL/KPC-producing Enterobacter assessed as potentiation of aztreonam induced-antimicrobial activity by measuring aztreonam MIC (Rvb > 16 ug/ml); format: functional
[10] = Inhibition of Escherichia coli PBP2
[11] = biological target: T1, Quinolone resistance protein NorA (Staphylococcus aureus) (UniProt P0A0J7); test: Inhibition of Staphylococcus aureus 1199B NorA assessed as potentiation of ciprofloxacin-induced antibacterial activity by measuring fold reduction in ciprofloxacin MIC at 12.5 to 25 uM
T1 sequence (whole entry): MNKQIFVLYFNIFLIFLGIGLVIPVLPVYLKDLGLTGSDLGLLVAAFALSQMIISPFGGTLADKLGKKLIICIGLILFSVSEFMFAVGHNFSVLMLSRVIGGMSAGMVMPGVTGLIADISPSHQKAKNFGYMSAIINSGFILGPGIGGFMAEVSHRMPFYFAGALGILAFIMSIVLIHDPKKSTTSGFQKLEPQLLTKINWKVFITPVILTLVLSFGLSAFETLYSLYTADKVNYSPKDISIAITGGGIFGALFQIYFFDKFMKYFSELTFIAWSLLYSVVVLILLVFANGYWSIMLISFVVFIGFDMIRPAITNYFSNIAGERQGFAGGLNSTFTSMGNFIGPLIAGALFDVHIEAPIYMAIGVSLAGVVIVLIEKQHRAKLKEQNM

Staphylococcus aureus [12] = test: Antibacterial activity against Staphylococcus aureus 1199B after 24 hrs by broth microdilution method; format: functional
Staphylococcus aureus [13] = test: Antibacterial activity against Staphylococcus aureus ATCC 25923 after 24 hrs by broth microdilution method; format: functional; conditions: ATCC 25923, 24 h
Escherichia coli [14] = test: Potentiation of cefotaxime induced-antimicrobial activity against Escherichia coli (reference value: 8 to 128 ug/ml); format: functional
[15] = Inhibition of bacterial AmpC; set-up: species or system Bacteria
Staphylococcus aureus [16] = test: Inhibition of biofilm formation in Staphylococcus aureus ATCC 25923 at 1.5 ug/ml after 24 hrs by MTT assay; format: functional; conditions: ATCC 25923, 24 h
[17] = test system: Staphylococcus epidermidis; test: Inhibition of biofilm formation in Staphylococcus epidermidis RP62A at 1.5 ug/ml after 24 hrs by MTT assay; format: functional
[18] = test system: Staphylococcus epidermidis; test: Inhibition of biofilm formation in Staphylococcus epidermidis DSM 3269 at 1.5 ug/ml after 24 hrs by MTT assay; format: functional; conditions: DSM 3269, 24 h
Staphylococcus aureus [19] = test: Inhibition of biofilm formation in Staphylococcus aureus ATCC 29213 at 1.5 ug/ml after 24 hrs by MTT assay; format: functional; conditions: ATCC 29213, 24 h
Staphylococcus aureus [20] = test: Inhibition of biofilm formation in Staphylococcus aureus ATCC 657 at 1.5 ug/ml after 24 hrs by MTT assay; format: functional; conditions: ATCC 657, 24 h
Staphylococcus aureus [21] = test: Inhibition of biofilm formation in Staphylococcus aureus ATCC 702 at 1.5 ug/ml after 24 hrs by MTT assay; format: functional; conditions: ATCC 702, 24 h
[22] = Inhibition of Escherichia coli KPC-2 using nitrocefin as substrate preincubated for 5 mins followed by substrate addition
[23] = Inhibition of Escherichia coli SHV-1 using nitrocefin as substrate preincubated for 5 mins followed by substrate addition
[24] = Inhibition of bacterial AmpC using nitrocefin as substrate incubated for 5 mins followed by substrate addition by UV-vis spectrophotometer; set-up: species or system Bacteria
Staphylococcus aureus [25] = test: Inhibition of biofilm formation in Staphylococcus aureus ATCC 43866 at 25 ug/ml after 24 hrs by MTT assay; format: functional; conditions: ATCC 43866, 24 h
Staphylococcus aureus [26] = test: Antibacterial activity against planktonic Staphylococcus aureus ATCC 43866 after 24 hrs by broth microdilution method; format: functional; conditions: ATCC 43866, 24 h
Staphylococcus aureus [27] = test: Antibacterial activity against planktonic Staphylococcus aureus ATCC 29213 after 24 hrs by broth microdilution method; format: functional; conditions: ATCC 29213, 24 h
[28] = test system: Staphylococcus epidermidis; test: Antibacterial activity against planktonic Staphylococcus epidermidis RP62A after 24 hrs by broth microdilution method; format: functional
[29] = biological target: T2, Quinolone resistance protein NorA (Staphylococcus aureus, UniProt P0A0J7); test: Inhibition of Staphylococcus aureus 1199B NorA assessed as reduction in ethidium bromide efflux by fluorescence assay
T2 sequence (P0A0J7 whole entry): T1 sequence (whole entry)

SMILES: CCCCc1ccc(/C=C(\C)Cn2cc(CCCCCc3c[nH]c(N)n3)nn2)cc1
- inhibition at 100 µM (Staphylococcus aureus [1]): > 94%

SMILES: O=C(/C=C/c1ccccc1)O[C@H]1CCC(=O)c2ccccc21
- MIC (Escherichia coli [2]): 250 to 1000 µg/mL (≈ 855 to 3420 µM)
- MIC (Escherichia coli [3]): 250 to 1000 µg/mL (≈ 855 to 3420 µM)
- MIC (Escherichia coli [4]): 250 to 1000 µg/mL (≈ 855 to 3420 µM)
- MIC (Escherichia coli [5]): 250 to 1000 µg/mL (≈ 855 to 3420 µM)
- MIC (Escherichia coli [6]): 250 to 1000 µg/mL (≈ 855 to 3420 µM)

SMILES: CCCCOc1cc(Br)cc(/C=C(\C)Cn2cc(CCCCCc3c[nH]c(N)n3)nn2)c1F
- inhibition at 100 µM (Staphylococcus aureus [1]): > 94%
- IC50 (Staphylococcus aureus [7]): 4500 nM

SMILES: C[C@]1(Cn2ccnn2)[C@H](C(=O)O)N2C(=O)C[C@H]2S1(=O)=O [TAZOBACTAM]
- IC50 [8]: 99000 nM

SMILES: O=C(O)[C@H](Cc1ccc2c(c1)OCO2)[C@@H](Cc1ccc2c(c1)OCO2)C(=O)O
- IC50 [9]: 210 nM

SMILES: NC(=O)[C@@H]1CC[C@@H]2CN1C(=O)N2OS(=O)(=O)[O-].[Na+] [AVIBACTAM SODIUM]
- MIC (Enterobacter): < 4 µg/mL
- IC50 [10]: 63000 nM

SMILES: CCCCCc1ccc(/C=C(\C)Cn2cc(CCCCCc3c[nH]c(N)n3)nn2)cc1
- inhibition at 100 µM (Staphylococcus aureus [1]): > 94%

SMILES: COc1cc(CNC(=O)CCCC/C=C/C(C)C)ccc1O
- fold change (FC) [11]: 2 to 4

SMILES: CC(C)(C)OC(=O)NCC(NC(=O)c1c[nH]c2ccccc12)c1c[nH]c2ccccc12 (centres undefined)
- MIC (Staphylococcus aureus [12]): > 32 µg/mL
- MIC (Staphylococcus aureus [13]): > 32 µg/mL

SMILES: O=S(=O)(NCB(O)O)c1ccc(-c2nnn[nH]2)nc1
- MIC (Escherichia coli [14]): 0.5 to 1 µg/mL
- Ki [15]: 0.8 nM

SMILES: O=C(c1cc(Br)cc(Br)c1O)c1[nH]c(Br)c(Br)c1Br
- inhibition at 1.5 µg/mL (Staphylococcus aureus [16]): 68.5 to 100%
- inhibition at 1.5 µg/mL [17]: 68.5 to 100%
- inhibition at 1.5 µg/mL [18]: 68.5 to 100%
- inhibition at 1.5 µg/mL (Staphylococcus aureus [19]): 68.5 to 100%
- inhibition at 1.5 µg/mL (Staphylococcus aureus [20]): 68.5 to 100%
- inhibition at 1.5 µg/mL (Staphylococcus aureus [21]): 68.5 to 100%

SMILES: O=C(Cc1cccs1)NC(Cn1cc(C(=O)O)nn1)B(O)O (centres undefined)
- IC50 [22]: 84 nM
- IC50 [23]: 130 nM

SMILES: O=C(c1cc(Cl)cc(Cl)c1O)c1[nH]c(Br)c(Br)c1Br
- inhibition at 1.5 µg/mL (Staphylococcus aureus [16]): 67.9 to 86.7%
- inhibition at 1.5 µg/mL [17]: 67.9 to 86.7%
- inhibition at 1.5 µg/mL [18]: 67.9 to 86.7%
- inhibition at 1.5 µg/mL (Staphylococcus aureus [19]): 67.9 to 86.7%
- inhibition at 1.5 µg/mL (Staphylococcus aureus [20]): 67.9 to 86.7%
- inhibition at 1.5 µg/mL (Staphylococcus aureus [21]): 67.9 to 86.7%

SMILES: O=C(Cc1cccs1)N[C@H](B(O)O)c1cccc(C(=O)O)c1
- Ki [24]: 1 nM

SMILES: O=S(=O)(NCB(O)O)c1ccc(-c2nnn[nH]2)cc1C(F)(F)F
- Ki [15]: 0.05 nM

SMILES: Cc1nn(C)c([N-]C(=O)c2ccc(Cl)cc2)c1[N+]#N
- inhibition at 25 µg/mL (Staphylococcus aureus [25]): 69 to 96%
- MIC (Staphylococcus aureus [26]): 1.5 to 12.5 µg/mL (≈ 5.44 to 45.3 µM)
- MIC (Staphylococcus aureus [27]): 1.5 to 12.5 µg/mL (≈ 5.44 to 45.3 µM)
- MIC [28]: 1.5 to 12.5 µg/mL (≈ 5.44 to 45.3 µM)

SMILES: COC(=O)[C@H]1[C@H]2C[C@@H]3c4[nH]c5cc(OC)ccc5c4CCN3C[C@H]2C[C@@H](OC(=O)c2cc(OC)c(OC)c(OC)c2)[C@@H]1OC [RESERPINE]
- IC50 [29]: 9000 to 14000 nM

SMILES: Cc1nn(C)c([N-]C(=O)c2ccc(Cl)cc2Cl)c1[N+]#N
- MIC (Staphylococcus aureus [26]): 1.5 to 12.5 µg/mL (≈ 4.84 to 40.3 µM)
- MIC (Staphylococcus aureus [27]): 1.5 to 12.5 µg/mL (≈ 4.84 to 40.3 µM)
- MIC [28]: 1.5 to 12.5 µg/mL (≈ 4.84 to 40.3 µM)

SMILES: C/C(=C\c1cccc2ccccc12)Cn1cc(CCCCCc2c[nH]c(N)n2)nn1
- inhibition at 100 µM (Staphylococcus aureus [1]): > 94%
- IC50 (Staphylococcus aureus [7]): 9860 nM
